According to patent publication US9624209B2, “Substituted phenylureas and phenylamides as vanilloid receptor ligands” (Gruenenthal GmbH, priority 2009, dated 2017):

Target: T1, vanilloid receptor 1 (VR1/TRPV1 receptor) (Homo sapiens, UniProt Q8NER1)
T1 construct: expressed in transfected cells; host or cells: CHO K1 cells (ECACC), stably transfected
Assay: VR1/TRPV1 receptor affinity, capsaicin stimulus (human)
Format: cell-based, human being
Design: key to (f) Ki (human being) [nM] Cap: result in words: AG=agonist; pAG=partial agonist; NE=no effect
Details: for (f) Ki (human being) [nM] Cap: result in words: Tables 8-12; for Ki: Tables 8-12, read-out: (f) Ki (human being) [nM] Cap; for inhibition at 5 µM: Tables 8-12, read-out: (f) Ki (human being) [nM] Cap: inhibition (as a percentage)

T1 sequence (Q8NER1 whole entry): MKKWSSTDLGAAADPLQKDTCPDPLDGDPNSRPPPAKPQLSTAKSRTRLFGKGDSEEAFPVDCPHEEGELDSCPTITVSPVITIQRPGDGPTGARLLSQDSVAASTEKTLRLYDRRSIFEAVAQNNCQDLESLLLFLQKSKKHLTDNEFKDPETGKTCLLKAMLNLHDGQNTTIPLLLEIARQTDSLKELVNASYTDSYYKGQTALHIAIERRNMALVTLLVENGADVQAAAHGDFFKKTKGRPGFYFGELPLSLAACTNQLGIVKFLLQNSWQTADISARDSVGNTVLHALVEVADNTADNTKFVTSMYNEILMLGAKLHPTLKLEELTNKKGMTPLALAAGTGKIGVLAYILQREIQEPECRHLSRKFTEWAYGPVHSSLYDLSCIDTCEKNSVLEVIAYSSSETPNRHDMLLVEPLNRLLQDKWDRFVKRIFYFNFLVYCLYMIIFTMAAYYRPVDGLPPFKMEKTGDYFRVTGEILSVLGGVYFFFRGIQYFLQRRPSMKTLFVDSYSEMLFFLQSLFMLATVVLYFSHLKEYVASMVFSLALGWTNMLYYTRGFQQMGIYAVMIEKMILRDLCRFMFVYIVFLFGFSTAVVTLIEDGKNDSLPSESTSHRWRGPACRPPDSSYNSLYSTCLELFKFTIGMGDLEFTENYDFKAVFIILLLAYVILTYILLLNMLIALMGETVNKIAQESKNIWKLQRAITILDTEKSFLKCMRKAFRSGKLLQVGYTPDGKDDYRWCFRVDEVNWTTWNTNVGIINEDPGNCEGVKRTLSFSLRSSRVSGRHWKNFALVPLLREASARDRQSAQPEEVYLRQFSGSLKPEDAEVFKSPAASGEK

| Molecule | Ki [nM] | also measured |
| --- | --- | --- |
| CC(C(=O)NCc1cc(C(C)(C)C)nn1-c1cccc(Cl)c1)c1ccc(S(C)(=O)=O)c(F)c1 (stereo not shown) [Example D1, N-[[5-tert-Butyl-2-(3-chlorophenyl)-2H-pyrazol-3-yl]-methyl]-2-(3-fluoro-4-methylsulfonyl-phenyl)-propionamide] |  | (f) Ki (human being) [nM] Cap: result in words: AG |
| 4-[[[5-tert-Butyl-2-(3-chlorophenyl)-2H-pyrazol-3-yl]-methyl-carbamoyl]-methyl]-2-fluoro-N-(4-fluorophenyl)-benzamide [Example E39] | 2 |  |
| CC(C)(C)c1cc(CNC(=O)Nc2ccc(CNS(N)(=O)=O)cc2)n(-c2ccc(F)c(F)c2)n1 [Example B74, 1-[[5-tert-Butyl-2-(3,4-difluoro-phenyl)-2H-pyrazol-3-yl]-methyl]-3-[4-[(sulfamoylamino)-methyl]-phenyl]-urea] | 37 |  |
| O=C(NCc1cc(C(F)(F)F)nn1-c1cccc(Cl)c1)Nc1ccc(CN2CCCCC2)c(F)c1 [Example B100, 1-[[2-(3-Chlorophenyl)-5-(trifluoromethyl)-2H-pyrazol-3-yl]-methyl]-3-[3-fluoro-4-(piperidin-1-yl-methyl)-phenyl]-urea] |  | inhibition at 5 µM: 17% |
| CC(C)c1cccc(-n2nc(C(F)(F)F)cc2CNC(=O)C(C)c2ccc(CNS(C)(=O)=O)c(F)c2)c1 (stereo not shown) [Example B82, 2-[3-Fluoro-4-(methanesulfonamido-methyl)-phenyl]-N-[[2-(3-isopropyl-phenyl)-5-(trifluoromethyl)-2H-pyrazol-3-yl]-methyl]-propionamide] | 0.8 |  |
| CS(=O)(=O)NCc1ccc(NC(=O)NCc2cc(C(F)(F)F)nn2-c2cccc(Cl)c2)cc1 [Example B81, 1-[[2-(3-Chlorophenyl)-5-(trifluoromethyl)-2H-pyrazol-3-yl]-methyl]-3-[4-(methanesulfonamido-methyl)-phenyl]-urea] | 33 |  |
| CC(C(=O)NCc1cc(C(C)(C)C)nn1-c1cccc(F)c1)c1ccc(CO)c(F)c1 (stereo not shown) [Example A37, N-[[5-tert-Butyl-2-(3-fluorophenyl)-2H-pyrazol-3-yl]-methyl]-2-[3-fluoro-4-(hydroxymethyl)-phenyl]-propionamide] |  | (f) Ki (human being) [nM] Cap: result in words: AG |
| CS(=O)(=O)CCc1ccc(NC(=O)NCc2cc(C(F)(F)F)nn2-c2ccc(F)c(Cl)c2)cc1F [Example D28, 1-[[2-(3-Chloro-4-fluoro-phenyl)-5-(trifluoromethyl)-2H-pyrazol-3-yl]-methyl]-3-[3-fluoro-4-(2-methylsulfonyl-ethyl)-phenyl]-urea] | 32 |  |
| CC(C(=O)NCc1cc(C(F)(F)F)nn1-c1ccc(F)c(F)c1)c1ccc(N2CCCS2(=O)=O)c(F)c1 (stereo not shown) [Example C3, N-[[2-(3,4-Difluoro-phenyl)-5-(trifluoromethyl)-2H-pyrazol-3-yl]-methyl]-2-[4-(1,1-dioxo-[1,2]thiazolidin-2-yl)-3-fluoro-phenyl]-propionamide] |  | inhibition at 5 µM: 54% |
| CC(C(=O)NCc1cc(C(F)(F)F)nn1-c1cccc(Cl)c1)c1ccc(CO)c(Cl)c1 (stereo not shown) [Example A36, 2-[3-Chloro-4-(hydroxymethyl)-phenyl]-N-[[2-(3-chlorophenyl)-5-(trifluoromethyl)-2H-pyrazol-3-yl]-methyl]-propionamide] | 0.3 |  |
| CC(C(=O)NCc1cc(C(F)(F)F)nn1-c1ccc(F)c(Cl)c1)c1ccc(CNS(C)(=O)=O)c(F)c1 (stereo not shown) [Example B2, N-[[2-(3-Chloro-4-fluoro-phenyl)-5-(trifluoromethyl)-2H-pyrazol-3-yl]-methyl]-2-[3-fluoro-4-(methanesulfonamido-methyl)-phenyl]-propionamide] | 2.4 |  |
| CC(C(=O)NCc1cc(C(C)(C)C)nn1-c1cccc(Cl)c1)c1ccc(CS(C)(=O)=O)c(F)c1 (stereo not shown) [Example D7, N-[[5-tert-Butyl-2-(3-chlorophenyl)-2H-pyrazol-3-yl]-methyl]-2-[3-fluoro-4-(methylsulfonyl-methyl)-phenyl]-propionamide] | 27 |  |
| CC(C(=O)NCc1cc(C2CC2)nn1-c1cccc(Cl)c1)c1ccc(CNS(N)(=O)=O)c(F)c1 (stereo not shown) [Example B95, N-[[2-(3-Chlorophenyl)-5-cyclopropyl-2H-pyrazol-3-yl]-methyl]-2-[3-fluoro-4-[(sulfamoylamino)-methyl]-phenyl]-propionamide] | 22 |  |
| Cc1cccc(-n2nc(C(C)(C)C)cc2CNC(=O)C(C)c2ccc(CNS(C)(=O)=O)c(F)c2)c1 (stereo not shown) [Example B88, N-[[5-tert-Butyl-2-(m-tolyl)-2H-pyrazol-3-yl]-methyl]-2-[3-fluoro-4-(methanesulfonamido-methyl)-phenyl]-propionamide] | 29 |  |
| CC(C(=O)NCc1cc(C(F)(F)F)nn1-c1ccc(F)c(F)c1)c1ccc(CNS(C)(=O)=O)c(F)c1 (stereo not shown) [Example B19, N-[[2-(3,4-Difluoro-phenyl)-5-(trifluoromethyl)-2H-pyrazol-3-yl]-methyl]-2-[3-fluoro-4-(methanesulfonamido-methyl)-phenyl]-propionamide] | 6 |  |
| CS(=O)(=O)NCc1c(F)cc(NC(=O)NCc2cc(C(F)(F)F)nn2-c2cccc(Cl)c2)cc1F [Example B27, 1-[[2-(3-Chlorophenyl)-5-(trifluoromethyl)-2H-pyrazol-3-yl]-methyl]-3-[3,5-difluoro-4-(methanesulfonamido-methyl)-phenyl]-urea] | 8 |  |

| Molecule | Ki [nM] | also measured |
| --- | --- | --- |
| N-(4-Chlorophenyl)-4-[1-[[2-(3-chlorophenyl)-5-(trifluoromethyl)-2H-pyrazol-3-yl]-methyl-carbamoyl]-ethyl]-2-fluoro-benzamide [Example E46] | 2 |  |
| CC(C)(C)c1cc(CNC(=O)Nc2ccc(OCC(O)CO)c(F)c2)n(-c2cccc(Cl)c2)n1 (stereo not shown) [Example A24, 1-[[5-tert-Butyl-2-(3-chlorophenyl)-2H-pyrazol-3-yl]-methyl]-3-[4-(2,3-dihydroxy-propoxy)-3-fluoro-phenyl]-urea] |  | (f) Ki (human being) [nM] Cap: result in words: AG |
| CS(=O)(=O)CCc1ccc(NC(=O)NCc2cc(C(F)(F)F)nn2-c2cccc(Cl)c2)cc1F [Example D27, 1-[[2-(3-Chlorophenyl)-5-(trifluoromethyl)-2H-pyrazol-3-yl]-methyl]-3-[3-fluoro-4-(2-methylsulfonyl-ethyl)-phenyl]-urea] | 40 |  |
| COc1cc(C(C)C(=O)NCc2cc(C(C)(C)C)nn2-c2cccc(Cl)c2)ccc1CO (stereo not shown) [Example A49, N-[[5-tert-Butyl-2-(3-chlorophenyl)-2H-pyrazol-3-yl]-methyl]-2-[4-(hydroxymethyl)-3-methoxy-phenyl]-propionamide] |  | (f) Ki (human being) [nM] Cap: result in words: AG |
| CC(C)(C)c1cc(CNC(=O)Nc2cc(F)c(CNS(C)(=O)=O)c(F)c2)n(-c2cccc(Cl)c2)n1 [Example B32, 1-[[5-tert-Butyl-2-(3-chlorophenyl)-2H-pyrazol-3-yl]-methyl]-3-[3,5-difluoro-4-(methanesulfonamido-methyl)-phenyl]-urea] | 2 |  |
| CCNCc1ccc(NC(=O)NCc2cc(C(C)(C)C)nn2-c2cccc(Cl)c2)cc1F [Example B25, 1-[[5-tert-Butyl-2-(3-chlorophenyl)-2H-pyrazol-3-yl]-methyl]-3-[4-(ethylamino-methyl)-3-fluoro-phenyl]-urea] | 45 |  |
| CC(C)(C)c1cc(CNC(=O)Nc2ccc(C(=O)N3CCOCC3)c(F)c2)n(-c2cccc(Cl)c2)n1 [Example E14, 1-[[5-tert-Butyl-2-(3-chlorophenyl)-2H-pyrazol-3-yl]-methyl]-3-[3-fluoro-4-(morpholine-4-carbonyl)-phenyl]-urea] |  | inhibition at 5 µM: 38% |
| CC(C)c1cccc(-n2nc(C(F)(F)F)cc2CNC(=O)Nc2ccc(CNS(N)(=O)=O)cc2)c1 [Example B79, 1-[[2-(3-Isopropyl-phenyl)-5-(trifluoromethyl)-2H-pyrazol-3-yl]-methyl]-3-[4-[(sulfamoylamino)-methyl]-phenyl]-urea] | 2 |  |
| CC(C)(C)c1cc(CNC(=O)Nc2ccc(CCS(C)(=O)=O)c(F)c2)n(-c2cccc(Cl)c2)n1 [Example D29, 1-[[5-tert-Butyl-2-(3-chlorophenyl)-2H-pyrazol-3-yl]-methyl]-3-[3-fluoro-4-(2-methylsulfonyl-ethyl)-phenyl]-urea] | 13 |  |
| CC(C(=O)NCc1cc(C(F)(F)F)nn1-c1cccc(C(F)(F)F)c1)c1ccc(CO)c(F)c1 (stereo not shown) [Example A48, 2-[3-Fluoro-4-(hydroxymethyl)-phenyl]-N-[[5-(trifluoromethyl)-2-[3-(trifluoromethyl)phenyl]-2H-pyrazol-3-yl]-methyl]-propionamide] |  | (f) Ki (human being) [nM] Cap: result in words: AG |
| 4-[1-[[5-tert-Butyl-2-(3-chlorophenyl)-2H-pyrazol-3-yl]-methyl-carbamoyl]-ethyl]-N-(4-chlorophenyl)-benzamide [Example E34] | 0.5 |  |
| CC(C(=O)NCc1cc(C(C)(C)C)nn1-c1cccc(Cl)c1)c1ccc(CO)c(F)c1 (stereo not shown) [Example A32, N-[[5-tert-Butyl-2-(3-chlorophenyl)-2H-pyrazol-3-yl]-methyl]-2-[3-fluoro-4-(hydroxymethyl)-phenyl]-propionamide] |  | (f) Ki (human being) [nM] Cap: result in words: AG |
| CC(C)(C)c1cc(CNC(=O)Cc2ccc(CNS(C)(=O)=O)c(F)c2)n(-c2cccc(Cl)c2)n1 [Example B26, N-[[5-tert-Butyl-2-(3-chlorophenyl)-2H-pyrazol-3-yl]-methyl]-2-[3-fluoro-4-(methanesulfonamido-methyl)-phenyl]-acetamide] | 12 |  |
| O=C(NCc1cc(C(F)(F)F)nn1-c1cccc(Cl)c1)Nc1ccc(CN2CCCC2)cc1 [Example B99, 1-[[2-(3-Chlorophenyl)-5-(trifluoromethyl)-2H-pyrazol-3-yl]-methyl]-3-[4-(pyrrolidin-1-yl-methyl)-phenyl]-urea] |  | inhibition at 5 µM: 43% |
| CC(C(=O)NCc1cc(C(F)(F)F)nn1-c1cccc(Cl)c1)c1ccc(CNS(N)(=O)=O)c(F)c1 (stereo not shown) [Example B97, N-[[2-(3-Chlorophenyl)-5-(trifluoromethyl)-2H-pyrazol-3-yl]-methyl]-2-[3-fluoro-4-[(sulfamoylamino)-methyl]-phenyl]-propionamide] | 1 |  |
